Data reported in the NIST ThermoML archive (doi:10.1016/j.fluid.2015.07.031).
Where “and” joins values, the source holds several entries; their conditions need not be identical. Equal entries are not always repeated. ± gives the expanded uncertainty stated by the source.

How the values were obtained:
[1] = Closed cell (Static) method
[2] = molar heat capacity at constant pressure; settings: 101.33 kPa, Liquid, Thin-film microcalorimeter

CC1(C)[C@H]2CC[C@]1(C)[C@H](O)C2 [(1S-endo)-1,7,7-trimethylbicyclo[2.2.1]heptan-2-ol]
[1]
Settings	vapor or sublimation pressure
293.12 K, Crystal 2	0.001843 ± 0.0002 kPa
293.13 K, Crystal 2	0.001845 ± 0.0002 kPa and 0.001846 ± 0.0002 kPa
298.14 K, Crystal 2	0.003114 ± 0.00025 kPa and 0.003117 ± 0.00025 kPa
298.15 K, Crystal 2	0.003118 ± 0.00025 kPa
303.16 K, Crystal 2	0.005163 ± 0.00033 kPa and 0.005164 ± 0.00033 kPa
303.17 K, Crystal 2	0.005165 ± 0.00033 kPa
308.16 K, Crystal 2	0.008376 ± 0.00048 kPa
308.18 K, Crystal 2	0.008394 ± 0.00048 kPa and 0.008395 ± 0.00048 kPa
313.13 K, Crystal 2	0.01335 ± 0.0007 kPa
313.14 K, Crystal 2	0.01336 ± 0.0007 kPa and 0.01337 ± 0.0007 kPa
318.14 K, Crystal 2	0.02101 ± 0.00094 kPa and 0.02103 ± 0.00094 kPa
318.15 K, Crystal 2	0.02103 ± 0.00094 kPa
323.17 K, Crystal 2	0.03267 ± 0.0013 kPa
323.18 K, Crystal 2	0.03269 ± 0.0013 kPa
323.19 K, Crystal 2	0.03273 ± 0.0013 kPa
328.14 K, Crystal 2	0.04968 ± 0.0019 kPa and 0.04971 ± 0.0019 kPa
328.15 K, Crystal 2	0.04973 ± 0.0019 kPa
333.18 K, Crystal 2	0.07494 ± 0.0027 kPa and 0.07496 ± 0.0027 kPa and 0.07498 ± 0.0027 kPa
338.2 K, Crystal 2	0.1112 ± 0.0039 kPa
338.21 K, Crystal 2	0.1112 ± 0.0039 kPa
343.15 K, Crystal 2	0.1618 ± 0.0054 kPa and 0.1619 ± 0.0054 kPa
346.99 K, Crystal 2	0.2143 ± 0.007 kPa
347.09 K, Crystal 2	0.2157 ± 0.0071 kPa
347.1 K, Crystal 2	0.2156 ± 0.007 kPa
348.11 K, Crystal 1	0.2309 ± 0.0076 kPa and 0.2308 ± 0.0076 kPa and 0.2307 ± 0.0076 kPa
352.88 K, Crystal 1	0.3183 ± 0.01 kPa
352.89 K, Crystal 1	0.3183 ± 0.01 kPa and 0.3184 ± 0.01 kPa
357.96 K, Crystal 1	0.4417 ± 0.014 kPa and 0.4418 ± 0.014 kPa
357.97 K, Crystal 1	0.4424 ± 0.014 kPa
362.89 K, Crystal 1	0.6015 ± 0.019 kPa
362.9 K, Crystal 1	0.6015 ± 0.019 kPa
362.94 K, Crystal 1	0.6029 ± 0.019 kPa

CC(C)=CCC[C@H](C)CCO [(S)-3,7-dimethyl-6-octen-1-ol]
[1], Liquid
Settings	vapor or sublimation pressure
273.65 K	0.000129 ± 0.00014 kPa and 0.00013 ± 0.00014 kPa and 0.000133 ± 0.00014 kPa
278.15 K	0.000231 ± 0.00014 kPa and 0.000228 ± 0.00014 kPa and 0.000235 ± 0.00014 kPa
283.15 K	0.00043 ± 0.00014 kPa and 0.000432 ± 0.00014 kPa
288.15 K	0.00077 ± 0.00015 kPa and 0.000777 ± 0.00015 kPa and 0.000779 ± 0.00015 kPa
293.15 K	0.001361 ± 0.00016 kPa and 0.001358 ± 0.00016 kPa
293.17 K	0.001319 ± 0.00018 kPa and 0.001331 ± 0.00018 kPa and 0.001328 ± 0.00018 kPa
298.15 K	0.00233 ± 0.00018 kPa and 0.002328 ± 0.00018 kPa and 0.002323 ± 0.00018 kPa
298.18 K	0.002272 ± 0.00021 kPa
298.19 K	0.00227 ± 0.00021 kPa
298.2 K	0.002271 ± 0.00021 kPa
303.15 K	0.003871 ± 0.00022 kPa and 0.003875 ± 0.00022 kPa and 0.003876 ± 0.00022 kPa
303.16 K	0.003787 ± 0.00027 kPa
303.19 K	0.003806 ± 0.00028 kPa
303.2 K	0.003795 ± 0.00028 kPa
308.15 K	0.006284 ± 0.0003 kPa and 0.006296 ± 0.0003 kPa and 0.006302 ± 0.0003 kPa
308.19 K	0.006203 ± 0.00038 kPa and 0.006213 ± 0.00038 kPa
308.21 K	0.006198 ± 0.00038 kPa
313.2 K	0.009899 ± 0.00055 kPa
313.21 K	0.009904 ± 0.00055 kPa and 0.009905 ± 0.00055 kPa
318.23 K	0.01566 ± 0.00077 kPa
318.24 K	0.01565 ± 0.00077 kPa and 0.01566 ± 0.00077 kPa
323.22 K	0.0243 ± 0.001 kPa
323.23 K	0.02431 ± 0.001 kPa
328.2 K	0.03714 ± 0.0015 kPa
328.21 K	0.03718 ± 0.0015 kPa and 0.03714 ± 0.0015 kPa
333.23 K	0.05589 ± 0.0021 kPa and 0.05585 ± 0.0021 kPa and 0.05576 ± 0.0021 kPa
338.19 K	0.08215 ± 0.003 kPa
338.2 K	0.08219 ± 0.003 kPa and 0.08218 ± 0.003 kPa
343.19 K	0.1192 ± 0.0042 kPa and 0.1193 ± 0.0042 kPa
348.14 K	0.1705 ± 0.0057 kPa
348.15 K	0.1706 ± 0.0057 kPa
353.1 K	0.2403 ± 0.0078 kPa and 0.2404 ± 0.0078 kPa
358.01 K	0.3337 ± 0.011 kPa
358.02 K	0.3345 ± 0.011 kPa and 0.3342 ± 0.011 kPa
362.97 K	0.4601 ± 0.015 kPa
362.98 K	0.4602 ± 0.015 kPa and 0.4607 ± 0.015 kPa

[2]
Settings	molar heat capacity at constant pressure [J/K/mol]
260.2 K	316.4 ± 3.2
265 K	320.7 ± 3.2
270 K	325.5 ± 3.3
275 K	330.5 ± 3.3
280 K	335.6 ± 3.4
285 K	340.9 ± 3.4
290 K	346.5 ± 3.5
295 K	352.3 ± 3.5
300 K	357.9 ± 3.6
305 K	363.6 ± 3.6
310 K	369.3 ± 3.7
315 K	375 ± 3.8
320 K	380.6 ± 3.8
325 K	386.5 ± 3.9
330 K	392.9 ± 3.9
335 K	398.8 ± 4
340 K	404 ± 4
345 K	409.2 ± 4.1
350 K	414.6 ± 4.1
355 K	420 ± 4.2

CC(C)=CCC/C(C)=C/CO [(E)-3,7-dimethyl-2,6-octadien-1-ol]
[1], Liquid
Settings	vapor or sublimation pressure
273.65 K	0.000112 ± 0.00014 kPa and 0.000109 ± 0.00014 kPa and 0.000111 ± 0.00014 kPa
278.15 K	0.00019 ± 0.00014 kPa and 0.000192 ± 0.00014 kPa and 0.000195 ± 0.00014 kPa
283.15 K	0.000357 ± 0.00014 kPa and 0.000355 ± 0.00014 kPa and 0.000358 ± 0.00014 kPa
288.15 K	0.000641 ± 0.00015 kPa and 0.000637 ± 0.00015 kPa and 0.000639 ± 0.00015 kPa
293.11 K	0.001082 ± 0.00017 kPa
293.14 K	0.001071 ± 0.00017 kPa and 0.001079 ± 0.00017 kPa
293.15 K	0.001116 ± 0.00015 kPa and 0.001114 ± 0.00015 kPa and 0.001118 ± 0.00015 kPa
298.15 K	0.001894 ± 0.00017 kPa [middle of 6 runs]
303.15 K	0.003189 ± 0.0002 kPa and 0.003178 ± 0.0002 kPa and 0.00319 ± 0.0002 kPa
303.17 K	0.003087 ± 0.00025 kPa and 0.003101 ± 0.00025 kPa
303.18 K	0.003091 ± 0.00025 kPa
308.15 K	0.005168 ± 0.00026 kPa and 0.00517 ± 0.00026 kPa and 0.005167 ± 0.00026 kPa
308.19 K	0.005018 ± 0.00033 kPa and 0.005019 ± 0.00033 kPa and 0.005016 ± 0.00033 kPa
313.16 K	0.008035 ± 0.00046 kPa and 0.008051 ± 0.00046 kPa and 0.008055 ± 0.00046 kPa
318.16 K	0.01263 ± 0.00067 kPa and 0.01264 ± 0.00067 kPa and 0.01265 ± 0.00067 kPa
323.17 K	0.0196 ± 0.0009 kPa and 0.01965 ± 0.0009 kPa and 0.0197 ± 0.0009 kPa
328.17 K	0.03003 ± 0.0012 kPa and 0.0301 ± 0.0012 kPa
333.16 K	0.04478 ± 0.0017 kPa and 0.04499 ± 0.0017 kPa and 0.04502 ± 0.0017 kPa
338.14 K	0.06605 ± 0.0024 kPa and 0.06612 ± 0.0024 kPa and 0.06614 ± 0.0024 kPa
343.13 K	0.09605 ± 0.0034 kPa and 0.09608 ± 0.0034 kPa and 0.0961 ± 0.0034 kPa
348.1 K	0.1372 ± 0.0047 kPa and 0.1373 ± 0.0047 kPa
353.07 K	0.194 ± 0.0064 kPa and 0.1941 ± 0.0064 kPa
358.04 K	0.2693 ± 0.0087 kPa and 0.2697 ± 0.0087 kPa
362.92 K	0.3686 ± 0.012 kPa and 0.3687 ± 0.012 kPa
362.94 K	0.3684 ± 0.012 kPa

[2]
Settings	molar heat capacity at constant pressure [J/K/mol]
260.8 K	310.1 ± 3.1
265 K	313.5 ± 3.1
270 K	317.5 ± 3.2
275 K	322.2 ± 3.2
280 K	326.7 ± 3.3
285 K	331.3 ± 3.3
290 K	336.2 ± 3.4
295 K	341.3 ± 3.4
300 K	346.1 ± 3.5
305 K	350.9 ± 3.5
310 K	355.8 ± 3.6
315 K	360.7 ± 3.6
320 K	365.6 ± 3.7
325 K	370.6 ± 3.7
330 K	376.2 ± 3.8
335 K	381.1 ± 3.8
340 K	385.5 ± 3.9
345 K	389.8 ± 3.9
350 K	394.3 ± 3.9
355 K	398.6 ± 4
